Data on 13 compounds can be found in patent publication US8501804B2, “Bicyclic compound” (Takeda Pharmaceutical Company Limited, priority 2008, dated 2013).

For test [1], the target named is T1, human ACC2 (Nd) (Homo sapiens, UniProt O00763).
T1 construct: His6 (from vector pFAST-BacHTa); made in house; host or cells: SF-9 insect cells, recombinant baculovirus BAC-ACC2 (Nd)
In words: ACC2 inhibitory activity (malachite green). Format: biochemical. The note with it: test compound 10 μM; for inhibition at 10 µM: read-out: ACC2 10 μM inhibitory rate (%). Put shortly:
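Enzyme: N-terminally truncated human ACC2 lacking the mitochondrial targeting sequence, His-tagged, expressed in baculovirus-infected Sf9 cells and Ni-NTA purified. Working dilution 6.4 μg/ml in 50 mM HEPES pH 7.5, 10 mM MgCl2, 10 mM tripotassium citrate, 2 mM DTT, 0.75 mg/ml fatty-acid-free BSA. Test compound in DMSO.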

For test [2], the target named is T2, human ACC1 (Homo sapiens, UniProt Q13085).
T2 construct: His6 (from vector pFAST-BacHTc); made in house; host or cells: SF-9 insect cells, recombinant baculovirus BAC-ACC1
The test is described as follows: ACC1 inhibitory activity (malachite green). The format is biochemical. As to conditions: test compound 10 μM; for inhibition at 10 µM: read-out: ACC1 10 μM inhibitory rate (%). In a few lines:
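His-tagged human ACC1 from baculovirus-infected Sf9 cells was Ni-NTA purified, diluted to 8 μg/ml, and preincubated with compound for 60 min at 30 °C in HEPES pH 7.5 buffer with MgCl2, citrate, DTT and BSA. Substrate solution (50 mM KHCO3, 200 μM ATP, 200 μM acetyl-CoA) was added for 20 min at 30 °C. Phosphate was read by malachite green at 620 nm against no-compound and no-acetyl-CoA controls.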

T1 sequence (O00763 117-2458 limits assumed): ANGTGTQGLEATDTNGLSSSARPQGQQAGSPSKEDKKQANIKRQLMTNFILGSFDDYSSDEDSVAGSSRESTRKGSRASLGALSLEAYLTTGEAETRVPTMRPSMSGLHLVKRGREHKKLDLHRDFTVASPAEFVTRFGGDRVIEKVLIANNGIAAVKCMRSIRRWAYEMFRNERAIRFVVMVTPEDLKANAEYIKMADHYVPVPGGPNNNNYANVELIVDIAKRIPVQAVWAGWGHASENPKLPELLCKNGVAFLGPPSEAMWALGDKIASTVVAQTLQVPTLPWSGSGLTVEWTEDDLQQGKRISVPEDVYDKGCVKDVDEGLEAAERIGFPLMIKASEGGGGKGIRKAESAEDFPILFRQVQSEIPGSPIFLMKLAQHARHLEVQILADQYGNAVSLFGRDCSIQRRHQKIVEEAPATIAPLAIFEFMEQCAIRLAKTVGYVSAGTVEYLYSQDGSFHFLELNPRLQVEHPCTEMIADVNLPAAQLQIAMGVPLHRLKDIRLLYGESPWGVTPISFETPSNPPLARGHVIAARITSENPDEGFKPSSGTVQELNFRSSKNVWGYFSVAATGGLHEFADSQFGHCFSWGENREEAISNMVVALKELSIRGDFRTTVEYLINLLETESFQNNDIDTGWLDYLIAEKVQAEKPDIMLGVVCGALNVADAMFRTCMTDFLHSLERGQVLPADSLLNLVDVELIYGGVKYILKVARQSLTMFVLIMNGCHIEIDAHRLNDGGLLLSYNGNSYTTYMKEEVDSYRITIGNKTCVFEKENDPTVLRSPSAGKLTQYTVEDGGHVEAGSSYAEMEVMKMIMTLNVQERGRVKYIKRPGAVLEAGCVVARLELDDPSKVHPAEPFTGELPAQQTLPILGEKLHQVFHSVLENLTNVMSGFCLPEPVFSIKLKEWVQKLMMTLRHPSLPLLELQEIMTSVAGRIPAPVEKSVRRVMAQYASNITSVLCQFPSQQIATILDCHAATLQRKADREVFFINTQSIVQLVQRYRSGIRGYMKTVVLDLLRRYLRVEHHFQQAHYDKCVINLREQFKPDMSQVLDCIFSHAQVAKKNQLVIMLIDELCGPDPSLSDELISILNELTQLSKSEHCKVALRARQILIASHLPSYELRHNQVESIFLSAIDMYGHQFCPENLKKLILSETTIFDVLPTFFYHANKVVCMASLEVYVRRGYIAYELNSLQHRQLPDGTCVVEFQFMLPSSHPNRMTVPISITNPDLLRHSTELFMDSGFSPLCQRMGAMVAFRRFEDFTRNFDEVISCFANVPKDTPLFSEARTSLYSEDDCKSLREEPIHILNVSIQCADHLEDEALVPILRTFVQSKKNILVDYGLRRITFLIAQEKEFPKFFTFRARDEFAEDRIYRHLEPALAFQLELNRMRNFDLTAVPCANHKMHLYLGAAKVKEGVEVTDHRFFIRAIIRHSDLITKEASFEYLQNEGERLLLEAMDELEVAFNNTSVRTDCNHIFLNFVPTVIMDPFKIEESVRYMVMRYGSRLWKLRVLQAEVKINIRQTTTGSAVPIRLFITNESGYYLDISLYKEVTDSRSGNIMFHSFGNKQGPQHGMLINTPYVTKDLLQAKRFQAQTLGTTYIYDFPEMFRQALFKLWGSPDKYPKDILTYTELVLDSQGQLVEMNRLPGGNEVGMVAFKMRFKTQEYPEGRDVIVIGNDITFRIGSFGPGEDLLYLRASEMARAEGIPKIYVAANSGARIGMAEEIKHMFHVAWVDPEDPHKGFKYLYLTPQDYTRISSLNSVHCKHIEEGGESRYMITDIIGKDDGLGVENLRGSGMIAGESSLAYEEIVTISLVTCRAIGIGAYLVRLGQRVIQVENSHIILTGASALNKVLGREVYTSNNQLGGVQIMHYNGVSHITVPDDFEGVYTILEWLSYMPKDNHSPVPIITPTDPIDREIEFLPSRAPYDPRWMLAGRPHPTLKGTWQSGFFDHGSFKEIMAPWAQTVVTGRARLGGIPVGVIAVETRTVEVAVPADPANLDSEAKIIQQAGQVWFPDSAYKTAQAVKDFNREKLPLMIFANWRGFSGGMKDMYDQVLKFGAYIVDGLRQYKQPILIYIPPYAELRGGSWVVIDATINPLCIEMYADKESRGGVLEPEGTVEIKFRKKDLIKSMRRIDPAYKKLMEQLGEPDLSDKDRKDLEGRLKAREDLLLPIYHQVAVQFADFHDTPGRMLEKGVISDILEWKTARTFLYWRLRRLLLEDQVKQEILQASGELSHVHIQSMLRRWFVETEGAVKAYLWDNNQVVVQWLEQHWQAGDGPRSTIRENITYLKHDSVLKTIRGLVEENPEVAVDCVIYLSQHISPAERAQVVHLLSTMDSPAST

Take `CSCCOc1ccc(CCc2ccc3cc(C(C)NC(C)=O)oc3c2)cc1` (centres unmarked) [Example 169, N-{1-[6-(2-{4-[2-(methylsulfanyl)ethoxy]phenyl}ethyl)-1-benzofuran-2-yl]ethyl}acetamide]: the inhibition at 10 µM in test [1] was found to be 75%; in test [2] it was 23%.

Turning to `CCOc1ccc(COc2ccc3oc(C(C)NC(C)=O)cc3c2)c(Cl)c1` (centres unmarked) [Example 28, N-(1-{5-[(2-chloro-4-ethoxybenzyl)oxy]-1-benzofuran-2-yl}ethyl)acetamide], the inhibition at 10 µM in test [1] stood at 81%; in test [2], 19%.

Regarding `CCCOc1ccc(CCc2ccc3cc(C(C)NC(C)=O)oc3c2)cc1` (centres unmarked) [Example 47, optically active forms (two kinds) of N-(1-{6-[2-(4-propoxyphenyl)ethyl]-1-benzofuran-2-yl}ethyl)acetamide], the “ACC2 10 μM inhibitory rate (%)” value in test [1] turned out to be 91%. In addition, the “ACC1 10 μM inhibitory rate (%)” value in test [2] was determined as 37%.

`CC(=O)N[C@H](C)[C@H]1Cc2ccc(C#Cc3ccc(OCC4CC4)cc3)cc2O1` (racemic) [Example 111, 1:1 mixture of N-{(1R)-1-[(2R)-6-{[4-(cyclopropylmethoxy)phenyl]ethynyl}-2,3-dihydro-1-benzofuran-2-yl]ethyl}acetamide and N-{(1S)-1-[(2S)-6-[([4-(cyclopropylmethoxy)phenyl]ethynyl]-2,3-dihydro-1-benzofuran-2-yl]ethyl}acetamide]: the figures for the inhibition at 10 µM in test [1] and in test [2] were 78% and 30%, respectively.

Take `CC(=O)NC(C)c1cc2ccc(C#Cc3ccc(OCC4CC4)nc3)cc2o1` (centres unmarked) [Example 138, N-[1-(6-{[6-(cyclopropylmethoxy)pyridin-3-yl]ethynyl}-1-benzofuran-2-yl)ethyl]acetamide]: the values for the inhibition at 10 µM in test [1] and in test [2] were 70% and 22%, respectively.

Take `CC(=O)N[C@@H](C)[C@@H]1Cc2ccc(OCc3ccc(OCC4CC4)cc3)cc2O1` [Example 144, N-{(1S)-1-[(2S)-6-{[4-(cyclopropylmethoxy)benzyl]oxy}-2,3-dihydro-1-benzofuran-2-yl]ethyl}acetamide]: the values for the inhibition at 10 µM in test [1] and in test [2] were 88% and 48%, respectively.

For the compound `CCCCOc1ccc(CCc2ccc3cc(C(C)NC(C)=O)oc3c2)cc1` (centres unmarked) [Example 44, N-(1-{6-[2-(4-butoxyphenyl)ethyl]-1-benzofuran-2-yl}ethyl)acetamide], the inhibition at 10 µM was 78% in test [1] and 35% in test [2].

Take `CCOc1ccc(COc2ccc3cc(C(C)NC(C)=O)oc3c2)cc1Br` (centres unmarked) [Example 175, N-(1-{6-[(3-bromo-4-ethoxybenzyl)oxy]-1-benzofuran-2-yl}ethyl)acetamide]: the values for the inhibition at 10 µM in test [1] and in test [2] were 74% and 15%, respectively.

As for `CCOc1ccc(CCc2ccc3cc(C(C)NC(C)=O)oc3n2)cc1` (centres unmarked) [Example 123, N-(1-{6-[2-(4-ethoxyphenyl)ethyl]furo[2,3-b]pyridin-2-yl}ethyl)acetamide], the inhibition at 10 µM was 78% in test [1] and 8% in test [2].

`CC(=O)NC(C)c1cc2cc(OCc3ccc(OCC4CC4)cc3Cl)ccc2o1` (centres unmarked) [Example 134 (retention time longer), N-[1-(5-{[2-chloro-4-(cyclopropylmethoxy)benzyl]oxy}-1-benzofuran-2-yl)ethyl]acetamide]: the inhibition at 10 µM came out at 55% in test [1] and 33% in test [2].

In the case of `CC(=O)N[C@@H](C)[C@@H]1Cc2ccc(OCc3ccc(OCC4CC4)cc3F)cc2O1` [Example 145, N-{(1S)-1-[(2S)-6-{[4-(cyclopropylmethoxy)-2-fluorobenzyl]oxy}-2,3-dihydro-1-benzofuran-2-yl]ethyl}acetamide], the inhibition at 10 µM is 88% in test [1] and 42% in test [2].

Turning to `CC(=O)NC(C)c1cc2cc(OCc3ccc(OCC4CC4)nc3F)ccc2o1` (centres unmarked) [Example 153, N-[1-(5-{[6-(cyclopropylmethoxy)-2-fluoropyridin-3-yl]methoxy}-1-benzofuran-2-yl)ethyl]acetamide], the inhibition at 10 µM was 70% in test [1] and 24% in test [2].

In the case of `CC(=O)NC(C)C1Cc2cc(OCc3ccc(OCC4CC4)cc3F)ccc2O1` (centres unmarked) [Example 141 (retention time shorter), N-[1-(5-{[4-(cyclopropylmethoxy)-2-fluorobenzyl]oxy}-2,3-dihydro-1-benzofuran-2-yl)ethyl]acetamide], the “ACC2 10 μM inhibitory rate (%)” value in test [1] is 95%. Besides, in test [2], the “ACC1 10 μM inhibitory rate (%)” value is listed as 41%.
